Source: patent US7943637B2, “Thienopyridine derivatives and the use thereof as HSP90 modulators” (Merck Patent GmbH, priority 2005, dated 2011)

Target: T1, Recombinant human HSP90α (Homo sapiens, UniProt P07900)
T1 construct: host or cells: E. coli
Test: HSP90 radioligand filter binding test, competition with [3H]17AAG
Conditions: [3H]17AAG 0.08 μM; HSP90 1.5 μg/assay; 22° C., 30 min; read-out: HSP90 inhibition IC50
Source text: The binding of geldanamycin or 17-allylamino-17-demethoxygeldanamycin (17AAG) to HSP90 and competitive inhibition thereof can be utilised in order to determine the inhibitory activity of the compounds according to the invention (Carreras et al. 2003, Chiosis et al. 2002).
In the specific case, a radioligand filter binding test is used. The radioligand used here is tritium-labelled 17-allylaminogeldanamycin, [3H]17AAG. This filter binding test allows a targeted search for inhibitors which interfere with the ATP binding site.
• Recombinant human HSP90α (E. coli expressed, 95% purity); • [3H]17AAG (17-allylaminogeldanamycin, [allylamino-2,3-^3H. Specific activity: 1.11×10^12 Bq/mmol (Moravek, MT-1717); • HEPES filter buffer (50 mM HEPES, pH 7.0, 5 mM MgCl2, BSA 0.01%) Multiscreen FB (1 μm) filter plate (Millipore, MAFBNOB 50). Method
The 96-well microtitre filter plates are firstly irrigated and coated with 0.1% of polyethylenimine.
The test is carried out under the following conditions: • Reaction temperature 22° C. • Reaction time: 30 min., shaking at 800 rpm • Test volume: 50 μl • Final concentrations: • 50 mM HEPES HCl, pH 7.0, 5 mM MgCl2, 0.01% (w/v) BSA • HSP90:1.5 μg/assay • [3H]17AAG: 0.08 μM.
At the end of the reaction, the supernatant in the filter plate is removed by suction with the aid of a vacuum manifold (Multiscreen Separation System, Millipore), and the filter is washed twice.
The filter plates are then measured in a beta counter (Microbeta, Wallac) with scintillator (Microscint 20, Packard).
“% of control” is determined from the “counts per minutes” values and the IC-50 value of a compound is calculated therefrom.

Structure (SMILES)	IC50 [µM]
COc1ccc(-c2c(C#N)c(N)nc3sc(C(N)=O)c(N)c23)cc1OC [Compound A1, 2-aminocarbonyl-3,6-diamino-5-cyano-4-(3,4-dimethoxyphenyl)thieno[2,3-b]pyridine]	1
CCOC(=O)CCCCCOc1cc(-c2c(C#N)c(N)nc3sc(C(N)=O)c(N)c23)ccc1OC [Compound A4, 2-aminocarbonyl-3,6-diamino-5-cyano-4-[3-(5-ethoxycarbonylpentyloxy)-4-methoxyphenyl]thieno[2,3-b]pyridine]	2.5
CCOC(=O)CCCCOc1cc(-c2c(C#N)c(N)nc3sc(C(N)=O)c(N)c23)ccc1OC [Compound A7, 2-aminocarbonyl-3,6-diamino-5-cyano-4-[3-(4-ethoxycarbonylbutoxy)-4-methoxyphenyl]thieno[2,3-b]pyridine]	1.5
COc1ccc(-c2c(C#N)c(N)nc3sc(C(N)=O)c(N)c23)cc1OCCCCC(=O)O [Compound A7a, 2-aminocarbonyl-3,6-diamino-5-cyano-4-[3-(4-carboxybutoxy)-4-methoxyphenyl]thieno[2,3-b]pyridine]	0.65
COc1ccc(-c2c(C#N)c(N)nc3sc(C(N)=O)c(N)c23)cc1OCCCCCC(=O)O [Compound A7b, 2-aminocarbonyl-3,6-diamino-5-cyano-4-[3-(5-carboxypentyloxy)-4-methoxyphenyl]thieno[2,3-b]pyridine]	0.89
CCOC(=O)CCCOc1cc(-c2c(C#N)c(N)nc3sc(C(N)=O)c(N)c23)ccc1OC [Compound A7c, 2-aminocarbonyl-3,6-diamino-5-cyano-4-[3-(3-ethoxycarbonylpropoxy)-4-methoxyphenyl]thieno[2,3-b]pyridine]	1.3
CCOC(=O)c1sc2nc(N)c(C#N)c(-c3ccc(OC)c(OC)c3)c2c1N [Compound A9, 2-ethoxycarbonyl-3,6-diamino-5-cyano-4-(3,4-dimethoxyphenyl)thieno[2,3-b]pyridine]	14
COc1ccc(-c2c(C#N)c(N)nc3sc(C(N)=O)c(N)c23)cc1OCC(N)=O [Compound A30]	3.3

The next lines start with the values.

IC50 [µM]	Structure (SMILES)
1.4	COc1ccc(-c2c(C#N)c(N)nc3sc(C(N)=O)c(N)c23)cc1OCc1ccccc1C [Compound A11]
0.78	COc1ccc(-c2c(C#N)c(N)nc3sc(C(N)=O)c(N)c23)cc1OCc1cccc(C(F)(F)F)c1 [Compound A21]
0.74	COc1ccc(-c2c(C#N)c(N)nc3sc(C(N)=O)c(N)c23)cc1OCc1ccc(C(=O)O)cc1 [Compound A689]
0.67	COc1ccc(-c2c(C#N)c(N)nc3sc(C(N)=O)c(N)c23)cc1OCc1cccc(OC(F)F)c1 [Compound A693]
